Experimental data as given in article PMC7190413 (Journal of cystic fibrosis : official journal of the …, 2019).
Like-named read-outs stand apart in the source and are kept apart here.

Tests used:
G551D-CFTR [1] = target: T1, G551D-CFTR (Homo sapiens, UniProt P13569, G551D); assay: Fractional PM activity; type: cell-based; settings: CFBE; forskolin-stimulated, mono-therapy or dual potentiator treatment; Fig. 5d
G551D-CFTR [2] = target: T1, G551D-CFTR; assay: Short-circuit current; type: cell-based; settings: for forskolin-activated Isc relative to that of WT-CFTR: forskolin 20 μM
S1251N-CFTR = assay: Fractional PM activity; type: cell-based, human; settings: CFBE; forskolin plus single potentiator; Fig. 5f
G551D-CFTR [3] = target: T1, G551D-CFTR; assay: Single-channel activity in reconstituted planar phospholipid bilayer; type: biochemical; settings: PKA-activated, 28–30°C
G551D-CFTR [4] = target: T1, G551D-CFTR; assay: Short-circuit current; type: cell-based; settings: CFBE; forskolin 20 μM then acute VX-770 10 μM; Fig. 5a,b

T1 sequence (P13569 whole entry G551D): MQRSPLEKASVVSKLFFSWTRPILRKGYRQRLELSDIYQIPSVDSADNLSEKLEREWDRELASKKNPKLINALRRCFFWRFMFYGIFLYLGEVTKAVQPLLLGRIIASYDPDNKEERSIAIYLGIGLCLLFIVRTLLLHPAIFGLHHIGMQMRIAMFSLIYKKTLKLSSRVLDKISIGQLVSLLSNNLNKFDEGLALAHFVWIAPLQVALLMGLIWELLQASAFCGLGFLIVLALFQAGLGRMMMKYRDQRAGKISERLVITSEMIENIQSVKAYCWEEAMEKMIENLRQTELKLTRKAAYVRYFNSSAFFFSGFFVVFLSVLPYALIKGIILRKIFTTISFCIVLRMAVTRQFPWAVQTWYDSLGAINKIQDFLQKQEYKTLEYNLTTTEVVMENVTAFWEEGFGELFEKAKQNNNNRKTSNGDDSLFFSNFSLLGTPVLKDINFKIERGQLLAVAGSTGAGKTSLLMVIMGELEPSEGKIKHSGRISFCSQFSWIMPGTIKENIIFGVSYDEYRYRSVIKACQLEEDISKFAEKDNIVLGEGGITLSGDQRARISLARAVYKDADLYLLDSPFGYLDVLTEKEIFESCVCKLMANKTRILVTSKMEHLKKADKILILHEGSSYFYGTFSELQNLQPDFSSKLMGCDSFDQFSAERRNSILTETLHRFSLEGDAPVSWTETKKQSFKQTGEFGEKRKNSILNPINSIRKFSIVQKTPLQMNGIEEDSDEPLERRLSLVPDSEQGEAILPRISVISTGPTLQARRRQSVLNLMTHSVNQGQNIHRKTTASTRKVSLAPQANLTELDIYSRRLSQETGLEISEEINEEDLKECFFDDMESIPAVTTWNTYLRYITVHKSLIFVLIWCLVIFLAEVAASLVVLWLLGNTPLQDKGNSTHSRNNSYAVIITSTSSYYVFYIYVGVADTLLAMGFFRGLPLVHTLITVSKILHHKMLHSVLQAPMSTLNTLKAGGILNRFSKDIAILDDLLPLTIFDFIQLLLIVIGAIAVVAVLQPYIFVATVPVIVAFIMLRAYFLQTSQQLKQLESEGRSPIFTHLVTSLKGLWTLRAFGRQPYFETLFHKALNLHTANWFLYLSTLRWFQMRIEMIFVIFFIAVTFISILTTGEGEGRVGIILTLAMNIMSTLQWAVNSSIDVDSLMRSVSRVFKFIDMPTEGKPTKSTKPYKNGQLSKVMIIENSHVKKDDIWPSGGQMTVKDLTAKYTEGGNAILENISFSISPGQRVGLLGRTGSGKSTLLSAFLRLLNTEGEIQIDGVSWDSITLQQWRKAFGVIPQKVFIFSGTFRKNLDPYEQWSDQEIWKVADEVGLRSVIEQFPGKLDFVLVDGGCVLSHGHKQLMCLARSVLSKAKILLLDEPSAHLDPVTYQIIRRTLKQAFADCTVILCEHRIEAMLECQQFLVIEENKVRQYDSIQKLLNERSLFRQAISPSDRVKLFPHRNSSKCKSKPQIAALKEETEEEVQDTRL

| SMILES | fractional PM activity of G551D, of the WT (G551D-CFTR [1]) [%] | lower potency in comparison to VX-770 (G551D-CFTR [2]; HNE, G551D-CFTR, Isc EC50) [fold] | EC50 (G551D-CFTR [2]; read-out: EC50 for G551D-CFTR potentiation, HNE, Isc, Supplementary Fig. 6e,f) [nM] | fractional PM activity of S1251N after single potentiator therapy, of WT (S1251N-CFTR) | open probability (Po) of phosphorylated G551D-CFTR (G551D-CFTR [3]; 3 μM VX-770) | EC50 (G551D-CFTR [2]) [nM] | forskolin-activated Isc relative to that of WT-CFTR (G551D-CFTR [2]; HNE with G551D on both alleles) | forskolin-activated Isc relative to that of WT-CFTR (G551D-CFTR [2]; HNE with one copy of G551D) | G551D-CFTR Isc, of WT-function (G551D-CFTR [4]) | open probability (Po) of phosphorylated G551D-CFTR upon addition of apigenin (G551D-CFTR [3]; 50 μM apigenin in the presence of 3 μM VX-770) |
| --- | --- | --- | --- | --- | --- | --- | --- | --- | --- | --- |
| CC1(C)Cc2c(sc(NC(=O)c3ccn[nH]3)c2C(N)=O)C(C)(C)O1 [ABBV-974] | 7 | 7 | ~300 | ~ 80% |  |  |  |  |  |  |
| CC(C)(C)c1cc(C(C)(C)C)c(NC(=O)c2c[nH]c3ccccc3c2=O)cc1O [VX-770, ivacaftor] | 6 |  |  | ~ 80% | ~ 0.08 | ~40 | ~ 50% | ~ 25% | ~ 6% |  |
| O=c1cc(-c2ccc(O)cc2)oc2cc(O)cc(O)c12 [apigenin] |  |  |  |  |  |  |  |  |  | 0.14 |
